Assay results published in patent publication US20230404863A1, “MICRONEEDLE PATCH AND PREPARATION METHOD THEREFOR” (SUZHOU REVEDA MEDICAL BIOTECH CO., LTD., priority 2020, published 2023).

Test: Stability of astaxanthin in patch vs aqueous solution (UV spectrophotometer, color)
Format: physicochemical
Details: room temperature
Source text: Astaxanthin and resveratrol are easily oxidized and are very unstable in water and in emulsions. Due to immiscibility of resveratrol with water, it was first hydrophilically modified, and its stability in patches and that in solutions was compared. The patches were made of astaxanthin and the hydrophilically modified resveratrol, and the solutions were aqueous solutions of astaxanthin and the hydrophilically modified resveratrol at the same concentrations.

## CC1=C(/C=C/C(C)=C/C=C/C(C)=C/C=C/C=C(C)/C=C/C=C(C)/C=C/C2=C(C)C(=O)[C@@H](O)CC2(C)C)C(C)(C)C[C@H](O)C1=O [astaxanthin]
In aqueous solution at the same concentration, without avoiding exposure to light
  Content of astaxanthin after 6 days vs the beginning: significantly lower than that at the beginning
In aqueous solution
  Color of astaxanthin after 6 days: became much lighter
